Consider four compounds from patent US9782427B2, “Methods for treating cancer using TOR kinase inhibitor combination therapy” (Signal Pharmaceuticals, LLC, priority 2013, dated 2017).

Test [1] has as its system seventeen breast cancer cell line panel. In words: Anti-proliferation assay (ATPLite), breast cancer cell line panel. It is filed as cell-based. Conditions: cell lines where inhibition levels greater than fifty percent were reached; 72 h; read-out: median GI50. The procedure:
Cells were thawed from a liquid nitrogen preserved state. Once cells expanded and divided at their expected doubling times, screening began.
Cells were equilibrated in assay plates via centrifugation and placed in incubators attached to the Dosing Modules at 37° C. for twenty-four hours before treatment. […] These T zero (T0) plates were read using ultra-sensitive luminescence on Envision Plate Readers. Treated assay plates were incubated with compound (single compound or combination) for seventy-two hours. After seventy-two hours, plates were developed for endpoint analysis using ATPLite. All data points were collected via automated processes; quality controlled; and analyzed. Assay plates were accepted if they passed the following quality control standards: relative luciferase values were consistent throughout the entire experiment, Z-factor scores were greater than 0.6, untreated/vehicle controls behaved consistently on the plate. The calculation for synergy score is provided below.
Growth Inhibition (GI) was used as a measure of cell viability. The cell viability of vehicle was measured at the time of dosing (T0) and after seventy-two hours (T72). A GI reading of 0% represents no growth inhibition—cells treated with compound and T72 vehicle signals are matched. […] GI was calculated by applying the following test and equation: If T<V0:100*[1−(T−V0)/V0] […]
For orientation: In ATP-based viability assays light output follows the ATP content of the culture.

For test [2], the system named is Ovcar-3. In words: Cell viability (CellTiter-Glo) and combination index, ovarian cell line. Format: cell-based. To be noted: combination with VIDAZA, 3 days, CalcuSyn, Chou-Talalay. As for the experimental part:
(§1) Cell viability was assessed using the Cell Titer-Glo® Luminescent Cell Viability Assay, Catalog Number G7570 (Promega Corporation, Madison, Wis.). The assay is a homogenous method of determining the number of viable cells in culture based on quantitation of the adenosine triphosphate (ATP) present, an indicator of metabolically active cells. The homogenous assay procedure involves adding the single reagent (CellTiter-Glo Reagent) directly to cells cultured in serum-supplemented medium. Cells were plated into a 96-well flat bottom plate (Costar Catalog Number 33595) at densities that were previously optimized for each cell line. The cells were incubated overnight in 5% CO2 at 37° C. The following day, compound dilutions were prepared and all concentrations were assayed in triplicate. The cells were incubated with a TOR kinase inhibitor or a TOR kinase inhibitor and a second active agent, in 5% CO2 at 37° C. for 3 days. After a 3-day incubation period, 100 μL, of CellTiter-Glo reagent was added to each well for 2 min with shaking and further incubated for 10 min (no shaking) at room temperature to stabilize the signal. The luminescence was measured on the VICTOR X2 multilabel plate reader. The percent growth inhibition was calculated using the DMSO control in the same plate (no compound) response as 100% cell growth. For single compound treatments (TORKi and second active agents separately), the average values from triplicates were plotted to obtain IC50 values using software XLfit from IDBS. The formula used for determining IC50 in XLfit was model number 205, which utilizes a 4 Parameter Logistic Model or Sigmoidal Dose-Response Model to calculate the IC50 values.
(§2) The cell viability assay was first performed with the TOR kinase inhibitor and the individual second active agents, to determine the dose range for subsequent combination studies. […] The TOR kinase inhibitor and the second active agent were each added to one well containing a final concentration of 0.2% DMSO (in triplicate). In the same plate in triplicate, the cells were treated with the TOR kinase inhibitor and each second active agent either simultaneously or sequentially (containing 0.2% DMSO). The number of cells affected by compound treatment was normalized to the DMSO control (100% viability) and the data was imported into the CalcuSyn software (V2.1, Biosoft). Synergism was quantitated by the combination index (CI) using CalcuSyn according to Chou-Talalay's CI method with mathematical modeling and simulations. […] ED50 is the median effect dose at which a 50% growth inhibition is achieved.

Test [3] concerns Caov-3. The description is as above. Format: cell-based. Conditions: combination with VIDAZA, 3 days, CalcuSyn, Chou-Talalay. The procedure:
as §1, §2

Test [4] deals with Ovcar-8. Described as above. To be noted: combination with VIDAZA, 3 days, CalcuSyn, Chou-Talalay. Format: cell-based. As for the experimental part: as §1, §2
The test system of test [5] is Ovcar-4. Described as above. It is filed as cell-based. To be noted: combination with VIDAZA, 3 days, CalcuSyn, Chou-Talalay. As for the experimental part: as §1, §2
In test [6] the test system is Ovcar-5. Described as above. Format: cell-based. Conditions: combination with VIDAZA, 3 days, CalcuSyn, Chou-Talalay. As for the experimental part:
as §1, §2

Test [7] deals with HepG2 cells. In words: Anchorage independent growth (colony formation) assay. Conditions: single agent; for colony formation: 8 days. It is filed as cell-based, Human. As for the experimental part: (§3) The effect of Compound 1 on anchorage-independent growth (AIG) was assessed by colony formation assay in 2 Human Hepatocellular Carcinoma (“HHC”) cell lines, HepG2 and SK-Hep-1.
(§4) Cell Lines/Cells. Human cell lines HepG2 and SK-Hep-1 cells were obtained from American Type Culture Collection (ATCC; Manassas, Va.). Cells were cultured in DMEM (Dulbecco's Modified Eagle's Medium) (Mediatech; Mannasas, Va.) with 10% Premium FBS (Lonza, Walkersville, Md.).
(§5) (1) Single Agent Colony Formation Assay. Nobel Agar (1.2 grams; BD; Franklin Lakes, N.J.) was placed in a 100-mL sterile bottle. Sterile water (100 mL) was added and microwaved until the agar boiled. Equal volumes of agar and 2×RPMI medium (ECE Scientific; Doylestown, Pa.) were mixed and 300 μL were transferred to each well in a 24-well flat bottom plate (BD; Franklin Lakes, N.J.). Plates were kept at 4° C. until the agar solidified. Cultures of HepG2 and SK-Hep-1 cells were harvested and resuspended in culture medium at 3.6×10^3 cells/mL. Equal volumes of agar, 2×RPMI, and cell suspension (1:1:1) were mixed in a sterile tube and 500 μL/well were immediately transferred into the 24-well plates. Plates were kept at 4° C. until the agar solidified. Culture medium (500 μL) containing compound or DMSO was added to each well (final DMSO concentration for each treatment was 0.2%). Compound 1 was tested at final concentrations of 0.1, 0.3, 1, 3, 10 and 30 μM. 5-AZA was tested at final concentrations of 1, 3 and 10 μM. Cell treatments were set up in triplicate. Cells were incubated for 8-10 days at 37° C. in a 5% CO2 atmosphere. Photographs (2× magnification) of each well were taken using a Nikon DXM1200 Digital Camera and Nikon ACT1 software and saved as a TIFF file. ImageQuant TL (GE Healthcare; Piscataway, N.J.) Colony Count Software was used to count colonies. (2) Combination Study Colony Formation Assay. Nobel Agar (1.2 grams; BD; Franklin Lakes, N.J.) was placed in a 100-mL sterile bottle. Sterile water (100 mL) was added and microwaved until the agar boiled. Equal volumes of agar and 2×RPMI medium (ECE Scientific; Doylestown, Pa.) were mixed and 300 μL were transferred to each well in a 24-well flat bottom plate (BD; Franklin Lakes, N.J.). Plates were kept at 4° C. until the agar solidified. Cultures of HepG2 and SK-Hep-1 cells were harvested and resuspended in culture medium at 3.6×10^3 cells/mL. Equal volumes of agar, 2×RPMI, and cell suspension (1:1:1) were mixed in a sterile tube and 500 μL/well were immediately transferred into the 24-well plates. Plates were kept at 4° C. until the agar solidified. Culture medium (500 μL) containing compound or DMSO was added to each well (final DMSO concentration for each treatment was 0.2%). Cells were treated with single treatment as follows: Compound 1 was tested at final concentrations of 0.1 and 0.3 μM. 5-AZA was tested at 3 μM. Combinations of Compound 1 at 0.1 and 0.3 μM were tested with 3 μM 5-AZA. Cell treatments were set up in triplicate. Cells were incubated for 8-10 days at 37° C. in a 5% CO2 atmosphere. Photographs (2× magnification) of each well were taken using a Nikon DXM1200 Digital Camera and Nikon ACT1 software and saved as a TIFF file. ImageQuant TL (GE Healthcare; Piscataway, N.J.) Colony Count Software was used to count colonies.
(§6) Significance versus the DMSO control was calculated using One Way ANOVA and Dunnett's Post test or unpaired t tests using GraphPad Prism v5.01. To evaluate the combinatory effect, data from the three independent experiments were analyzed by comparing the combinatory response against the theoretical additive response of the two agents.

Test [8] relates to SK-Hep-1 cells. The description is as above. To be noted: single agent. Format: cell-based, Human. As for the experimental part: as §3, §4, §5, §6
The test system of test [9] is subjects with higher-risk MDS. To be noted: Phase III study, administered subcutaneously; cited from earlier work.
Where [10] appears, read: concentrations of 0.1 to 100 μM.

Turning to `CCN1C(=O)CNc2ncc(-c3ccc(-c4nc[nH]n4)nc3C)nc21` [Compound 2, 1-ethyl-7-(2-methyl-6-(1H-1,2,4-triazol-3-yl)pyridin-3-yl)-3,4-dihydropyrazino[2,3-b]pyrazin-2(1H)-one], in test [1], the GI50 (commonly the concentration giving 50% growth inhibition) was found to be 140 nM.

For the compound `Cc1nc(-c2nnc[nH]2)ccc1-c1cnc2c(n1)N(CCC1CCOCC1)C(=O)CN2` [Compound 3, 7-(2-methyl-6-(4H-1,2,4-triazol-3-yl)pyridin-3-yl)-1-(2-(tetrahydro-2H-pyran-4-yl)ethyl)-3,4-dihydropyrazino[2,3-b]pyrazin-2(1H)-one], the “Combination index (CI) at the ED50” value is 0.55 in [2]; 0.92 in [3]; 0.81 in test [4]; 0.61 in test [5]; 0.76 in test [6].

Regarding `Nc1ncn([C@@H]2O[C@H](CO)[C@@H](O)[C@H]2O)c(=O)n1` [Compound 5-AZA, 4-amino-1-β-D-ribofuranosyl-1,3,5-triazin-2(1H)-one, reference compound], the colony formation in test [7] (at 1, 3 and 10 μM) is reported as 43-76 % of control; in test [8] (10 μM, 8 days) it was 38 % of control. The “survival and time to AML transformation or death” value in [9] was “significantly prolonged survival and time to AML transformation or death”.

Regarding `CO[C@H]1CC[C@H](N2C(=O)CNc3ncc(-c4ccc(C(C)(C)O)nc4)nc32)CC1` [Compound 1, 7-(6-(2-hydroxypropan-2-yl)pyridin-3-yl)-1-((1r,4r)-4-methoxycyclohexyl)-3,4-dihydropyrazino-[2,3-b]pyrazin-2(1H)-one], the colony formation is 74 % of control in test [7] (0.1 μM); 57 % of control in test [7] (0.3 μM); 33 % of control in [7] (1 μM); 24 % of control in test [7] (3 μM); 16 % of control in test [7] (10 μM); 11 % of control in test [7] (30 μM). Besides, in test [8] (0.3-30 μM, 8-10 days), the colony formation was 0-45 % of control. The anti-colony forming activity entry in test [7] (setting [10]) was “dose-dependent and significant anti-colony forming activity”; in test [8] (setting [10]), “dose-dependent and significant anti-colony forming activity”. The “inhibition of colony formation” value in test [8] (3 μM and higher) is 100%. Also, the “Combination index (CI) at the ED50” value is 1.23 in [2]; 1.08 in test [3]; 0.99 in [4]; 0.99 in test [5]; 0.92 in test [6].
